Literature values as cited in PubChem BioAssay AID1259409 (Chemical Carcinogenesis Research Information System (CCRIS), 2018).

Test system: rodent chemically induced tumor inhibition, incidence and multiplicity
Experiment: CCRIS tumor inhibitor studies
Conditions: Route [Inhibitor]: ORAL, Species: RAT

COc1cc(/C=C/C(=O)O[C@H]2CC[C@]34C[C@]35CC[C@]3(C)[C@@H]([C@H](C)CCC=C(C)C)CC[C@@]3(C)[C@@H]5CC[C@H]4C2(C)C)ccc1O
tumour outcome (control, treated, inhibition, significance) (Carcinogen: 3,2'-DIMETHYL-4-AMINOBIPHENYL, 13394-86-0, Dose [Inhibitor]: 0, 2% IN BASAL DIET BEGINNING POST CARCINOGEN TREATMENT AND CONTINUING FOR 40 WK (STUDY DURATION: 60 WK), Strain/Sex: F344/MALE, Target Tissue: Type of Lesion: SMALL INTESTINE: ADENOMA AND ADENOCARCINOMA, Dose [Carcinogen]: 50 MG/KG 1/2 WK FOR 20 WK TO RATS MAINTAINED ON ETHINYL ESTRADIOL CONTAINING DIET (0.75 PPM) FOR 1 WK CYCLED WITH ETHINY, Promoter: ETHINYL ESTRADIOL, 57-63-6): 2/10 (20%), 3/13 (23%), -15%, not significant
tumour outcome (control, treated, inhibition, significance) (Carcinogen: 3,2'-DIMETHYL-4-AMINOBIPHENYL, 13394-86-0, Dose [Inhibitor]: 0, 2% IN BASAL DIET BEGINNING POST CARCINOGEN TREATMENT AND CONTINUING FOR 40 WK (STUDY DURATION: 60 WK), Strain/Sex: F344/MALE, Target Tissue: Type of Lesion: SUBCUTIS: TUMOR, Dose [Carcinogen]: 50 MG/KG 1/2 WK FOR 20 WK TO RATS MAINTAINED ON ETHINYL ESTRADIOL CONTAINING DIET (0.75 PPM) FOR 1 WK CYCLED WITH ETHINY, Promoter: ETHINYL ESTRADIOL, 57-63-6): 1/10 (10%), 0/13 (0%), 100%, not significant
tumour outcome (control, treated, inhibition, significance) (Carcinogen: 3,2-DIMETHYL-4-AMINOBIPHENYL, 13394-86-0, Dose [Inhibitor]: 0, 2% IN BASAL DIET BEGINNING POST CARCINOGEN TREATMENT AND CONTINUING FOR 40 WK (STUDY DURATION: 60 WK), Strain/Sex: F344/MALE, Target Tissue: Type of Lesion: PREPUTIAL GLAND: ADENOMA AND CARCINOMA, Dose [Carcinogen]: 50 MG/KG 1/2 WK FOR 20 WK TO RATS MAINTAINED ON ETHINYL ESTRADIOL CONTAINING DIET (0.75 PPM) FOR 1 WK CYCLED WITH ETHINY, Promoter: ETHINYL ESTRADIOL, 57-63-6): 5/10 (50%), 8/13 (62%), -24%, not significant
tumour outcome (control, treated, inhibition, significance) (Carcinogen: 3,2-DIMETHYL-4-AMINOBIPHENYL, 13394-86-0, Dose [Inhibitor]: 0, 2% IN BASAL DIET BEGINNING POST CARCINOGEN TREATMENT AND CONTINUING FOR 40 WK (STUDY DURATION: 60 WK), Strain/Sex: F344/MALE, Target Tissue: Type of Lesion: ZYMBAL GLAND: ADENOMA AND CARCINOMA, Dose [Carcinogen]: 50 MG/KG 1/2 WK FOR 20 WK TO RATS MAINTAINED ON ETHINYL ESTRADIOL CONTAINING DIET (0.75 PPM) FOR 1 WK CYCLED WITH ETHINY, Promoter: ETHINYL ESTRADIOL, 57-63-6): 2/10 (20%), 0/13 (0%), 100%, not significant
tumour outcome (control, treated, inhibition, significance) (Carcinogen: 3,2-DIMETHYL-4-AMINOBIPHENYL, 13394-86-0, Dose [Inhibitor]: 0, 200% PPM IN BASAL DIET BEGINNING POST CARCINOGEN TREATMENT AND CONTINUING FOR 40 WK (STUDY DURATION: 60 WK), Strain/Sex: F344/MALE, Target Tissue: Type of Lesion: LARGE INTESTINE: ADENOMA AND ADENOCARCINOMA, Dose [Carcinogen]: 50 MG/KG 1/2 WK FOR 20 WK TO RATS MAINTAINED ON ETHINYL ESTRADIOL CONTAINING DIET (0.75 PPM) FOR 1 WK CYCLED WITH ETHINY, Promoter: ETHINYL ESTRADIOL, 57-63-6): 3/10 (30%), 3/13 (23%), 23%, not significant
tumour outcome (control, treated, inhibition, significance) (Carcinogen: 7,12-DIMETHYLBENZ[A]ANTHRACENE [57-97-6], Dose [Inhibitor]: 1% IN DIET FOR 35 WK BEGINNING 1 WK POST LAST CARCINOGEN DOSE (STUDY DURATION: 36 WK), Strain/Sex: SPRAGUE-DAWLEY/FEMALE, Target Tissue: Type of Lesion: MAMMARY GLAND: CARCINOMA, Dose [Carcinogen]: 50 MG/KG BW ONCE (STUDY DURATION: 36 WK), Promoter: NONE): 14/15 (93%), 15/16 (94%), -1%, not significant
tumour outcome (control, treated, inhibition, significance) (Carcinogen: 7,12-DIMETHYLBENZ[A]ANTHRACENE [57-97-6], Dose [Inhibitor]: 1% IN DIET FOR 35 WK BEGINNING 1 WK POST LAST CARCINOGEN DOSE (STUDY DURATION: 36 WK), Strain/Sex: SPRAGUE-DAWLEY/FEMALE, Target Tissue: Type of Lesion: MAMMARY GLAND: FIBROADENOMA, Dose [Carcinogen]: 50 MG/KG BW ONCE (STUDY DURATION: 36 WK), Promoter: NONE): 3/15 (20%), 2/16 (13%), 35%, not significant
tumour outcome (control, treated, inhibition, significance) (Carcinogen: 7,12-DIMETHYLBENZ[A]ANTHRACENE, 57-97-6, Dose [Inhibitor]: 0, 1% IN DIET FOR 35 WK BEGINNING POST CARCINOGEN DOSE (STUDY DURATION: 36 WK), Strain/Sex: SPRAGUE-DAWLEY/FEMALE, Target Tissue: Type of Lesion: EAR DUCT: TUMOR, Dose [Carcinogen]: 50 MG/KG BW IN CORN OIL ONCE, Promoter: NONE USED): 5/15 (33%), 7/16 (44%), -33%, not significant
tumour outcome (control, treated, inhibition, significance) (Carcinogen: 7,12-DIMETHYLBENZ[A]ANTHRACENE, 57-97-6, Dose [Inhibitor]: 0, 1% IN DIET FOR 35 WK BEGINNING POST CARCINOGEN DOSE (STUDY DURATION: 36 WK), Strain/Sex: SPRAGUE-DAWLEY/FEMALE, Target Tissue: Type of Lesion: MAMMARY GLAND: ADENOCARCINOMA, Dose [Carcinogen]: 50 MG/KG BW IN CORN OIL ONCE, Promoter: NONE USED): 14/15 (93%), 15/16 (94%), -1%, not significant
tumour outcome (control, treated, inhibition, significance) (Carcinogen: 7,12-DIMETHYLBENZ[A]ANTHRACENE, 57-97-6, Dose [Inhibitor]: 0, 1% IN DIET FOR 35 WK BEGINNING POST CARCINOGEN DOSE (STUDY DURATION: 36 WK), Strain/Sex: SPRAGUE-DAWLEY/FEMALE, Target Tissue: Type of Lesion: MAMMARY GLAND: FIBROADENOMA, Dose [Carcinogen]: 50 MG/KG BW IN CORN OIL ONCE, Promoter: NONE USED): 3/15 (20%), 2/16 (13%), 35%, not significant
